Measurements reported in patent publication EP0986568B1, “NOVEL CLASS OF NUCLEIC ACID CATIONIC TRANSFECTING AGENTS” (Aventis Pharma S.A., priority 1997, dated 1998).

Test system: ADN
Test: Association with DNA, ethidium bromide fluorescence
Format: binding
Details: 6 nmoles d'agent transfectant/µg d'ADN, 5 µg bromure d'éthidium/ml; for fluorescence dans le chlorure de sodium NaCl à 300 mM: NaCl 300 mM; for fluorescence dans l'eau: in water
Description: • Les purifications sur HPLC (High Performance Liquid Chromatography) ont été effectuées avec un appareil Waters LC 4000, sur une colonne Vydac C4 éluée par un gradient d'acétonitrile dans l'eau. • Les mesures de fluorescence ont été réalisées sur Perkin Elmer LS50B, en utilisant des longueurs d'onde d'excitation et d'émission respectivement de 260 nm et 590 nm. Les largeurs de fentes pour l'excitation et l'émission sont réglées à 5 nm. La valeur de fluorescence est enregistrée après ajout de 5 µg de bromure d'éthidium/ml en concentration finale. • Les spectres de résonance magnétique nucléaire (RMN) ont été enregistrés, à 300,13 MHz pour le proton ou à 75,47 MHz pour le carbone, sur un appareil Bruker MSL 300 dans le chloroforme deutérié.
Les agents transfectants selon l'invention ont été mis en solution dans l'eau à 10 mM. Les solutions ainsi obtenues sont transparentes et correspondent à une organisation sous forme de micelles de lipide cationique.
Les complexes agent tranfectant/ADN ont été réalisés suivant un rapport de 6 nmoles d'agent transfectant/µg d'ADN.

méthyl-dioctadécylamido-phtalyl-6-tri-O-(amino-2'-éthyl)-2,3,4-β-D-galactopyranoside [8(b)]
fluorescence dans le chlorure de sodium NaCl à 300 mM: 60%
fluorescence dans l'eau: 7%

méthyl-dioctadécylamido-succinyl-6-tri-O-(amino-2'-éthyl)-2,3,4-β-D-galactopyranoside [8(a)]
fluorescence dans le chlorure de sodium NaCl à 300 mM: 55%
fluorescence dans l'eau: 6%
